molecular target: T1, human QRFP receptor (GPR103) (Homo sapiens, UniProt Q96P65); assay: QRFP43-Binding Inhibitory Test; details: inhibition of specific [125I] QRFP43 binding; membrane sample of CHO-K1 NFAT β-Lactamase cells expressing GPR103; 25° C., 1 hour
T1 construct: expressed in transfected cells; host or cells: CHO-K1 NFAT β-Lactamase (Aurora); membrane sample
T1 sequence (Q96P65 1-431): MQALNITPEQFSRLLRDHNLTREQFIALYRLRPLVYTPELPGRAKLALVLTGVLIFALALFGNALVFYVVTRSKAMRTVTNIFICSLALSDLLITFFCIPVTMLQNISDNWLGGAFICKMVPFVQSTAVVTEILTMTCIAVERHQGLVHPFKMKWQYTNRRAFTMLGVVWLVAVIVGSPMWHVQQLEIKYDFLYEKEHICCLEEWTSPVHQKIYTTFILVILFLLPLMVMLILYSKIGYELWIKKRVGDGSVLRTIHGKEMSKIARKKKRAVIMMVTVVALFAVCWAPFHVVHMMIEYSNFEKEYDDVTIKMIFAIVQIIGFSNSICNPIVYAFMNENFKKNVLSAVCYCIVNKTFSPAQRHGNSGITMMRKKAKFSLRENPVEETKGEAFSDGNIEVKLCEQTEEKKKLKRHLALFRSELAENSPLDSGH
Source text: A cDNA sequence [Accession No. NM_198179] coding for a human QRFP receptor (GPR103) was cloned in an expression vector pEF1V5-H isB (by Invitrogen). The resulting expression vector was transfected in a host cell CHO-K1 NFAT β-Lactamase (by Aurora), according to a cationic lipid process [see Proceedings of the National Academy of Sciences of the United States of America, Vol. 84, p. 7413, 1987], thereby producing a QRFP receptor (GPR103).
A membrane sample prepared from the cells having expressed a QRFP receptor (GPR103) was incubated in an assay buffer (50 mM Tris-HCl, 1 mM EDTA and 0.1% BSA, pH 7.4) along with a test compound and 20,000 cpm [^125I] QRFP43 (by Perkin Elmer) therein, at 25° C. for 1 hour, and then filtered through a glass filter GF/C. After washed with 50 mM Tris-HCl (containing 2 mM EDTA, 10 mM MgCl2 and 0.04% Tween-20) buffer (pH 7.4), the radioactivity on the glass filter was determined. The non-specific binding was determined in the presence of 1 μM peptide QRFP43, and the 50% inhibitory concentration (IC50) of the test compound to the specific [^125I] QRFP43 binding was computed [see Endocrinology, Vol. 131, p. 2090, 1992].

SMILES	IC50
CN(C)Cc1ccc2c(c1)CCN(C(=O)c1cc3cc(Cl)ccc3n1C)C2 [Example 7, [6-Dimethylaminomethyl-3,4-dihydro-2(1H)isoquinolin-2-yl](5-chloro-1-methyl-1H-indol-2-yl)methanone]	6.1 nM
CN(C)Cc1ccc2c(c1)CCN(C(=O)c1cc3ccccc3n1C)C2 [Example 4, [6-Dimethylaminomethyl-3,4-dihydro-2(1H)isoquinolin-2-yl](1-methyl-1H-indol-2-yl)methanone]	5.8 nM
Cn1c(C(=O)NCc2ccc3c(c2)CCNC3)cc2ccccc21 [Example 1, 1-Methyl-N-(1,2,3,4-tetrahydroisoquinolin-6-ylmethyl)-1H-indole-2-carboxamide]	61 nM
Cn1c(C(=O)NCc2ccc3c(c2)CCN(C2CCCC2)C3)cc2ccccc21 [Example 3, N-(2-cyclopentyl-1,2,3,4-tetrahydroisoquinolin-6-ylmethyl)-1-methyl-1H-indole-2-carboxamide]	45 nM
Cn1c(C(=O)N2CCc3cc(CN4CCC4)ccc3C2)cc2ccccc21 [Example 6, [6-(Azetidin-1-ylmethyl)-3,4-dihydro-2(1H)isoquinolin-2-yl](1-methyl-1H-indol-2-yl)methanone]	43 nM
CNCc1ccc2c(c1)CCN(C(=O)c1cc3ccccc3n1C)C2 [Example 5, [6-Methylaminomethyl-3,4-dihydro-2(1H)isoquinolin-2-yl](1-methyl-1H-indol-2-yl)methanone]	19 nM
CCN1CCc2cc(CNC(=O)c3cc4ccccc4n3C)ccc2C1 [Example 2, N-(2-ethyl-1,2,3,4-tetrahydroisoquinolin-6-ylmethyl)-1-methyl-1H-indole-2-carboxamide]	49 nM
CNCc1ccc2c(c1)CCN(C(=O)c1cc3cc(Cl)ccc3n1C)C2 [Example 8, [6-methylaminomethyl-3,4-dihydro-2(1H)isoquinolin-2-yl](5-chloro-1-methyl-1H-indol-2-yl)methanone]	25 nM

— US20120035155A1, “INDOLE-2-CARBOXAMIDE DEIVATIVE” (MSD K.K., priority 2009, published 2012)
